Legend:
[1] = tested on: human peripheral blood neutrophils; test: Inhibition of fMLP-induced neutrophil chemotaxis (48-well microchemotaxis chamber, leading-front method); type: cell-based; conditions: for IC50: read-out: Inhibition of the migration of neutrophils induced by fMLP CI50; for Percentage in brackets after the fMLP CI50 bound: meaning of the percentage not explained
Experimental: (§1) The inhibitory activity of the compounds according to the present invention towards fMLP- or CXCL8-induced chemotaxiswas evaluated following methods described in the literature (Giordano, C. et al., Bioorg. Med. Chem. 2006, 14, 2642 and documents cited in such article).
(§2) Cells were obtained from blood of healthy subjects and human peripheral blood neutrophils were purified by using the standard techniques of dextran sedimentation (Pharmacia, Uppsala, Sweden), centrifugation on Ficoll-Paque (Pharmacia) and hypotonic lysis of contaminating red blood cells. The cells were washed twice and resuspended in Krebs-Ringer (KRPG) phosphate, pH 7.4, at a final concentration of 50 x 10^6 cells/ml and kept at room temperature until used. The neutrophils were 98-100% viable, as determined using the Trypan blue exclusion test.
(§3) The f-MLP-OMe and the compounds to be tested (10-^2M) were dissolved in dimethylsulfoxide (DMSO) while CXCL8 (10^-5 M) was dissolved in water. All solutions were diluted in KRPG before use to obtain the final concentration required by the experimental protocol.
(§4) A random locomotion test was carried out with a 48-well microchemotaxis chamber (Bio Probe, Milan) and migration into the filter was evaluated by the leading-front method (Gennari, C. et al, Eur. J. Org. Chem. (1998), p. 945) by estimating the distance in micrometres which the leading edge of the cell migrated. The actual control random movement is 35 ± 3 µm SE of six separate experiments carried out in duplicate.
(§5) The directional movement or chemotaxis was measured with the same chamber used for the random locomotion, adding fMLP-OMe 10^-9 M or CXCL8 10^-8 M in the lower compartment.
(§6) Each compound to be tested was added in the upper compartment of the chemotaxis chamber, diluted at concentrations varying from 10^-15 to 10^-5 M with KRPG containing 1 mg/ml of bovine serum albumin (BSA; Orha Behringwerke, Germany).
(§7) The neutrophils were pre-incubated with the compounds to be tested ten minutes before the functional test. The data was expressed in terms of chemotactic index (C.I.), which is the ratio (migration towards test attractant - migration towards the buffer)/migration towards the buffer.
(§8) The antagonism was measured as C.I. in the absence (100%) and in the presence of the compound to be tested at different concentrations. CI50 values were calculated from the sigmoid dose-response curve by a nonlinear regression analysis (Graph Pad Prism, San Diego, USA).
(§9) The values are means of six separate experiments carried out twice. The standard errors are in the range of 0.02-0.09 C.I.

[2] = tested on: human peripheral blood neutrophils; test: Inhibition of IL8 (CXCL8)-induced neutrophil chemotaxis (48-well microchemotaxis chamber, leading-front method); type: cell-based; conditions: CXCL8 10^-8 M in lower compartment, neutrophils pre-incubated ten minutes with compound, means of six experiments, read-out: Inhibition of the migration of neutrophils induced by IL8 CI50
Experimental: as §1, §2, §3, §4, §5, §6, §7, §8, §9

[3] = Homo sapiens, Neutrophil, fMLP-OMe 10^-9 M in lower compartment, neutrophils pre-incubated ten minutes with compound, means of six experiments
[4] = Homo sapiens, Neutrophil, fMLP-OMe 10^-9 M, unit µM, highest tested concentration 10^-5 M
[5] = fMLP-OMe 10^-9 M in lower compartment, neutrophils pre-incubated ten minutes with compound, means of six experiments

IC50 [1, 3] [µM] | IC50 ([2]; Homo sapiens, Neutrophil) [nM] | SMILES | other results
0.1 ± 0.0103 | – | CCOC(=O)c1cnn(CC(C)O)c1NC(=O)Nc1ccccc1F (centres unmarked) [Ie, 1-(2-hydroxypropyl)-5-[3-(2-fluorophenyl)ureido]-1H-pyrazole-4-carboxylic acid ethyl ester] | –
– | 0.0074 ± 0.0002 | CCOC(=O)c1cnn(CC(O)CC)c1NC(=O)NCc1ccccc1 (centres unmarked) [Ij, 1-(2-hydroxybutyl)-5-(3-benzylureido)-1H-pyrazole-4-carboxylic acid ethyl ester] | IC50 [1, 4]: > 10 µM; Percentage in brackets after the fMLP CI50 bound ([1]; fMLP-OMe 10^-9 M): 54%
0.0098 ± 0.0009 | – | CCOC(=O)c1cnn(CC(C)O)c1NC(=O)Nc1cccc2ccccc12 (centres unmarked) [Ih, 1-(2-hydroxypropyl)-5-[3-(1-naphthyl)ureido]-1H-pyrazole-4-carboxylic acid ethyl ester] | –
0.015 ± 0.0011 | – | CCOC(=O)c1cnn(CC(C)O)c1NC(=O)NCc1ccccc1 (centres unmarked) [Ic, 1-(2-hydroxypropyl)-5-(3-benzylureido)-1H-pyrazole-4-carboxylic acid ethyl ester] | –
– | – | COC(=O)[C@H](Cc1ccccc1)NC(=O)[C@H](CC(C)C)NC(=O)[C@H](CCSC)NC=O [fMLP-OMe] | chemotactic index (C.I.) ([1]; chemoattractant alone at 10^-9): 1.2
– | – | CCOC(=O)c1cnn(CC(C)O)c1NC(=O)NN1CCN(Cc2ccccc2)CC1 (centres unmarked) [Id, 1-(2-hydroxypropyl)-5-[3-(4-benzyl)piperazinylureido]-1H-pyrazole-4-carboxylic acid ethyl ester] | Percentage in brackets after the fMLP CI50 bound ([1]; fMLP-OMe 10^-9 M): 63%; IC50 ([1]; fMLP-OMe 10^-9 M, unit µM, highest tested concentration 10^-5 M): > 10 µM
0.00043 ± 5e-05 | 0.0032 ± 0.0001 | CCCC(O)Cn1ncc(C(=O)OCC)c1NC(=O)NCc1ccccc1 (centres unmarked) [Iq, 1-(2-hydroxypentyl)-5-(3-benzylureido)-1H-pyrazole-4-carboxylic acid ethyl ester] | –
0.00019 ± 1e-05 | 0.36 ± 0.06 | CCOC(=O)c1cnn(CC(O)CC)c1NC(=O)Nc1cccc(F)c1 (centres unmarked) [Im, 1-(2-hydroxybutyl)-5-[3-(3-fluorophenyl)ureido]-1H-pyrazole-4-carboxylic acid ethyl ester] | –
0.0032 ± 0.0004 | 1.9 ± 0.13 | CCOC(=O)c1cnn(CC(O)CC)c1NC(=O)Nc1ccc(F)cc1 (centres unmarked) [In, 1-(2-hydroxybutyl)-5-[3-(4-fluorophenyl)ureido]-1H-pyrazole-4-carboxylic acid ethyl ester] | –
– | – | CCCC(O)Cn1ncc(C(=O)OCC)c1NC(=O)NN1CCN(Cc2ccccc2)CC1 (centres unmarked) [Ir, 1-(2-hydroxypentyl)-5-[3-(4-benzyl)piperazinylureido)-1H-pyrazole-4-carboxylic acid ethyl ester] | IC50 [2]: 0.09 ± 0.004 nM; IC50 [1, 5]: 0.0011 ± 0.0001 µM
– | 0.2 ± 0.06 | CCOC(=O)c1cnn(CC(C)O)c1NC(=O)Nc1ccc(F)cc1 (centres unmarked) [Ig, 1-(2-hydroxypropyl)-5-[3-(4-fluorophenyl)ureido]-1H-pyrazole-4-carboxylic acid ethyl ester] | IC50 [1, 4]: > 10 µM; Percentage in brackets after the fMLP CI50 bound ([1]; fMLP-OMe 10^-9 M): 55%
– | – | CCOC(=O)c1cnn(CC(C)O)c1NC(=O)Nc1cccc(F)c1 (centres unmarked) [If, 1-(2-hydroxypropyl)-5-[3-(3-fluorophenyl)ureido]-1H-pyrazole-4-carboxylic acid ethyl ester] | IC50 [1, 4]: > 10 µM; Percentage in brackets after the fMLP CI50 bound ([1]; fMLP-OMe 10^-9 M): 60%
0.0078 ± 0.00052 | 0.0076 ± 0.001 | CCOC(=O)c1cnn(CC(O)c2ccccc2)c1NC(=O)Nc1cccc2ccccc12 (centres unmarked) [Ia, 1-(2-hydroxy-2-phenylethyl)-5-[3-(1-naphthyl)ureido]-1H-pyrazole-4-carboxylic acid ethyl ester] | –
0.012 ± 0.0012 | 9.6 ± 1 | CCOC(=O)c1cnn(CC(O)CC)c1NC(=O)Nc1cccc2ccccc12 (centres unmarked) [Io, 1-(2-hydroxybutyl)-5-[3-(1-naphthyl)ureido]-1H-pyrazole-4-carboxylic acid ethyl ester] | –
– | – | CCOC(=O)c1cnn(CC(O)CC)c1NC(=O)NN1CCN(Cc2ccccc2)CC1 (centres unmarked) [Ik, 1-(2-hydroxybutyl)-5-[3-(4-benzyl)piperazinylureido)-1H-pyrazole-4-carboxylic acid ethyl ester] | IC50 [1, 5]: 2 ± 0.2 µM
0.12 ± 0.012 | 0.0016 ± 0.0002 | CCOC(=O)c1cnn(CC(O)CC)c1NC(=O)Nc1ccccc1F (centres unmarked) [Il, 1-(2-hydroxybutyl)-5-[3-(2-fluorophenyl)ureido]-1H-pyrazole-4-carboxylic acid ethyl ester] | –
– | 0.0042 ± 0.0007 | CCOC(=O)c1cnn(CC(O)CC)c1NC(=O)NC(C)C (centres unmarked) [Ii, 1-(2hydroxybutyl)-5-(3-isopropylureido)-1H-pyrazole-4-carboxylic acid ethyl ester] | IC50 [1, 4]: > 10 µM; Percentage in brackets after the fMLP CI50 bound ([1]; fMLP-OMe 10^-9 M): 52%
0.02 ± 0.0022 | 1 ± 0.05 | CCCC(O)Cn1ncc(C(=O)OCC)c1NC(=O)NC(C)C (centres unmarked) [Ip, 1-(2-hydroxypentyl)-5-(3-isopropylureido)-1H-pyrazole-4-carboxylic acid ethyl ester] | –
0.09 ± 0.0093 | – | CCOC(=O)c1cnn(CC(C)O)c1NC(=O)NC(C)C (centres unmarked) [Ib, 1-(2-hydroxypropyl)-5-(3-isopropylureido)-1H-pyrazole-4-carboxylic acid ethyl ester] | –
